Laboratory results as given in patent publication US9883669B2, “Maintenance medium for primate pluripotent stem cells” (priority 2014, dated 2018).

System: human iPS cells (253G1 lines and 201B7 lines)
Test: Observation of colony morphology of human iPS cells by light microscope
Type: cell-based
Conditions: xylose 3 g/L, 0, 24, 48, 72 hours, KSR
Protocol: During culture period, medium change was performed daily.
For a xylose medium for iPS cells in which xylose concentrations were 3 g/L and 15 g/L, the morphology of iPS cell colonies at 96 and 120 hours after culture was also observed with a light microscope (IX70, manufactured by Olympus Corporation).

SMILES | colony morphology and proliferation inhibitory effects, D-xylose versus L-xylose
O=C[C@H](O)[C@@H](O)[C@H](O)CO [D-xylose] | no differences
O=C[C@@H](O)[C@H](O)[C@@H](O)CO [L-xylose] | no differences
